In patent publication US20220354818A1, “METHODS FOR TREATING BRAIN INJURY OR COGNITIVE DYSFUNCTION BY PHARMACOLOGICAL ENHANCMENT OF M-TYPE POTASSIUM ION CURRENTS IN NEURONS” (Advanced Neuroresearch Therapeutics LLC, priority 2019, published 2022):

What was measured:
[1] = tested on: C57BL/6J mice subjected to three blast TBIs; test: Repetitive blast TBI (rbTBI): post-traumatic seizures and post-traumatic epilepsy, video/EEG
Protocol: Adult 12-week-old male C57BL/6J mice (Jackson Labs, Bar Harbor, Me.) were group-housed with food and water ad libitum in 12:12 hour light: dark cycle. […] Experimenters were blinded to group allocation during data collection and analysis.
The shock tube (Applied Research Associates) had and inner diameter of 17 inches and a about 36-inch end opening. […] Before reaching the mice, the air blast wave passed through a 0.016-inch-thick aluminum membrane of alloy AL-2200. Pencil probe gauges (PCB Piezotronics) were placed beside the mice to monitor the pressure of the air-driven blast wave. […] During the procedure, mice were anesthetized using ketamine (25-75 mg/kg) and dexmedetomidine (0.25 mg/kg). The animals were subjected to three directed head-on blast TBI with 24 hours intervals between each injury. On the first day of blast exposure, animals were given a subcutaneous injection of buprenorphine SR (1.2 mg/kg) in the interscapular region.
Sham animals were anesthetized and placed in the shock tube but were not subjected to the rbTBI. After each blast exposure, mice were given one subcutaneous injection of atipamezole (1 mg/kg) to reverse the anesthesia and placed into a recovery chamber with controlled temperature. On the following days, mice were monitored for signs of pain and distress.
Mice from the “TBI” group were injected with the same volume of vehicle solution only.
Seizures were identified visually by the investigator's analysis of the video/EEG records. The number of seizures, latency to the first seizure, seizure duration, and percentage of mice from each group that had seizures were quantified.

[2] = tested on: mice subjected to one blunt TBI (CCCI); test: Dosage optimization: spontaneous myoclonic seizures after one blunt TBI (CCCI); assay type: in vivo, mouse; details: RTG 0.3, 1 and 3 mg/kg i.p. once 30 minutes post-TBI; second to fourth day
Protocol: An additional KCNQ2/3-specific compound, RL648_81 was also administered in the same manner (0.03 mg/kg, 0.1 mg/kg, and 0.3 mg/kg). […] To monitor the occurrence of spontaneous myoclonic seizures after, the mice were video/EEG monitored from the second to the fourth day after the TBI (72 hours total).

[3] = tested on: mice subjected to rbTBI; test: Sleep-wake cycle analysis of EEG after rbTBI; assay type: in vivo, mouse; details: first week post-rbTBI
Protocol: To study the sleep-wake cycle, video/EEG records from the first 72 hour long record session (starting 2 days after the last injury) and the last 48 hour long record session (9 months after the last injury) were analyzed. To select one EEG channel from each animal/session for further analysis, we performed visual inspections of the raw local field potentials and their time-frequency decompositions (spectrograms) recorded from the three electrodes. EEG channels with signal saturation and background noise or artifacts were discarded. Then, the EEG channel with the highest percentage power at the 5-12 Hz frequency band was used to classify the sleep-wake cycle. Awake state (WK), slow wave sleep (SWS), rapid eye movement sleep REM), and transition/undetermined states (US) were classified based on two power spectral ratios, as described by Gervasoni et al., Global Forebrain Dynamics Predict Rat Behavioral States and Their Transitions, J Neurosci 24(49): 11137-11147 (2004). In brief, it first measures the relative power within fast (0.5-20/0.5-50 Hz) and slow (0.5-4.5/0.5-9 Hz) frequency bands and then generates a 2 dimensional (2D) state-space on which clusters are manually selected and associated with each state of the sleep-wake cycle.

[4] = tested on: sympathetic neuron; test: Action potential firing in a sympathetic neuron, current-clamp
Source text: Various currents are applied in “current-clamp” mode 44 ranging from 50 pA to −100 pA, and the resulting AP firing recorded.

[5] = tested on: mice subjected to one blunt TBI, PTZ; test: Treatment window study: PTZ-induced seizure duration after one blunt TBI; assay type: in vivo, mouse
Protocol: Mice were video-EEG monitored for 24 hours after stimulation with a normally sub-seizure threshold dose of PTZ (35 mg/kg; s.c.) administered on the fifth day post-TBI, which caused the mice to respond with prolonged seizures. […] A TBI cohort (vehicle only) was also assessed for control purposes.

[6] = tested on: TAR DNA-binding protein 43 (TDP-43); test: TDP-43 immunoblotting and immunohistochemistry after rbTBI (CTE marker); assay type: in vivo, mouse
Protocol: Levels of TDP-43 were first analyzed by immunoblotting experiments performed as previously described. Cortical and hippocampal samples were collected when the mice were 26-28 months of age.
Complementary to the immunoblot experiments, immunohistochemistry staining of TDP-43 was performed as previously described. Left hemisphere samples were removed and fixed overnight in 4% paraformaldehyde (Electron Microscopy Sciences). Subsequently, samples were transferred into 30% (w/v) sucrose in PBS and kept for 3 days at 4° C. before they were frozen in Tissue-Plus O.C.T. Compound (Fisher Scientific) using 2-methylbutane immersed in dry ice. Samples were stored at −80° C. until cross-sectioning.
20 μm thick coronal sections of the prefrontal cortex (PFC) were mounted on Superfrost Plus microscope slides (Fisher Scientific) previously coated with gelatin (Sigma). […] Images were taken in the PFC layer II at 40× magnification using an iXon ultra EMCCD Andor camera attached to a Nikon Eclipse TE2000-U microscope, with a fixed exposition time of 200 ms, in the 16-bit readout mode, with 2 MHz speed, and a pre-amplifier gain of 3. The mean and maximum fluorescence signal was obtained by automatic quantification with ImageJ (National Institutes of Health, USA). […]
Samples used in the immunoblotting and the immunohistochemistry experiments were from the EEG-monitored mice and from the above independent cohort. […]

## CCOC(=O)Nc1ccc(NCc2ccc(F)cc2)cc1N [RTG, 2-amino-4-(4-fluorobenzylamino)-1-ethoxycarbonylaminobenzene]
[1]; rbTBI, RTG 1.2 mg/kg i.p. 30 minutes after each blast, second to fourth day after TBIs
  duration of post-traumatic seizures (PTS): significantly reduced duration of the PTS
[1]; rbTBI, RTG 30 minutes after each TBI, first to ninth month after final rbTBI
  mice experiencing seizures (PTE): about 20%
[1]; rbTBI, RTG 30 minutes after each blast
  severity of post-traumatic seizures (EEG amplitude): less severe
[1]; three blast TBIs one day apart, RTG 30 min after each, 1 month to 12 months after injury
  mice that developed post-traumatic epilepsy (PTE): 25%
[2]
  occurrence of myoclonic seizures post-TBI: significantly reduced the occurrence of myoclonic seizures
[3]
  percentage of time in awake state: roughly equivalent to that experienced by the Sham group
[4]
  action potential firing in response to stimuli: Complete silencing of the neuron occurs
[5]; RTG 1 mg/kg i.p. at 1-hour post-TBI
  PTZ-induced seizure duration: significantly reduced induced seizure duration
[5]; RTG 1 mg/kg i.p. at 2 hours and 6 hours post-TBI
  PTZ-induced seizure duration: Lesser effects were observed
[6]; 2 years after TBIs, immunoblot and immunofluorescence
  TDP-43 expression in the cerebral cortex: reduced TDP-43 as compared to the Blast cohort
[6]; cerebral cortex
  phosphorylation levels of TDP-43: Neither TBI, nor RTG treatment, changed the phosphorylation levels of TDP-43
